Test results taken from patent publication US5318980A, “Sulphonylbenzyl-substituted imidazoles” (Bayer Aktiengesellschaft, priority 1992, dated 1994).
pIC50, pKi: −log10 of the molar value.

The molecules below were run against T1, Angiotensin II receptor (Bos taurus, UniProt P25104) (assay: Interaction with the angiotensin II receptor on membrane fractions of the adrenal cortex (cattle), 3H-angiotensin II bonding). Conditions: bovine adrenal cortex membranes; 3H-angiotensin II (3-5 nM); 60 minutes at room temperature.
T1 construct: carried out on partly purified membrane fractions of bovine AC with radioactive angiotensin II; from tissue; host or cells: bovine adrenal cortex, freed from medulla, partly purified membrane fractions
T1 sequence (P25104 1-359): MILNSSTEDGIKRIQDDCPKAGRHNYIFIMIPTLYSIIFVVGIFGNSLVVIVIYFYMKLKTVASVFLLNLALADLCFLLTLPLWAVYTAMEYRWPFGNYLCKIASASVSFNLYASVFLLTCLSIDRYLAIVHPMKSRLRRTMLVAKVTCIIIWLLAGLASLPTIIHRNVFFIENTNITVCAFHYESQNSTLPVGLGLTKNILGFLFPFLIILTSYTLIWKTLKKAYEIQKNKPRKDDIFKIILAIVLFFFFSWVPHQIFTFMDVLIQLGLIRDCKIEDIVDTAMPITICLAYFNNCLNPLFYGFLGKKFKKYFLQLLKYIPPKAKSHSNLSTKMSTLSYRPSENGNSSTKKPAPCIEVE
Type: binding
Procedure: Adrenal cortices from cattle (AC), which are freshly removed and carefully freed from medulla from the capsule, are comminuted to a coarse membrane homogenate in sucrose solution (0.32M) with the aid of an Ultra-Turrax (Janke & Kunkel, Staufen i.B.), and the homogenate is partly purified to membrane fractions in two centrifugation steps.
The investigations on receptor bonding are carried out on partly purified membrane fractions of bovine AC with radioactive angiotensin II in an assay volume of 0.25 ml, which specifically contains the partly purified membranes (50-80 μg), ^3 H-angiotensin II (3-5 nM), test buffer solution (50 mM Tris, pH 7.2), 5 mM MgCl2 and the substances to be investigated. After an incubation time of 60 minutes at room temperature, the non-bonded radioactivity of the samples is separated off by means of moistened glass fibre filters (Whatman GF/C), and, after the protein has been washed with ice-cold buffer solution (50 mM Tris/HCl, pH 7.4, 5% PEG 6000), the radioactivity bonded is measured […] in a scintillation cocktail. The raw data were analysed with computer programs to give Ki and IC50 values (Ki : IC50 values corrected for the radioactivity used; IC50 values: concentration at which the substance to be investigated causes 50% inhibition of specific bonding of the radioligand).

Row | pKi | SMILES
1 | 6.40 | CCCCc1nc(Cl)c(C(=O)O)n1Cc1ccc(S(=O)(=O)N2CCC[C@H]2C(=O)O)cc1 [Example 15]
2 | 6.70 | CCCCc1nc(Cl)c(C(=O)O)n1Cc1ccc(S(=O)(=O)N2CCCCC2C(=O)OC(C)(C)C)cc1Cl (stereo not drawn) [Example 18]

These molecules were tested on smooth muscle cells (assay: Inhibition of the proliferation of smooth muscle cells (3H-thymidine incorporation)). Conditions: at 10^-6 M (so in the source); growth stimulated with AII, serum or other factors.
Type: cell-based, rats or pigs
Procedure: Smooth muscle cells which are obtained from the aortas of rats or pigs by the media explantate technique are used to determine the antiproliferative action of the compounds [R. Ross, J. Cell. Biol. 50, 172, 1971]. The cells are sown in suitable culture dishes, as a rule 24-hole plates, and cultured for 2-3 days in medium 199 containing 7.5% of FCS and 7.5% of NCS, 2 mM of L-glutamine and 15 mM of HEPES, pH 7.4, in 5% CO2 at 37° C. Thereafter, the cells are synchronised by serum withdrawal for 2-3 days and then stimulated to growth with AII, serum or other factors. Test compounds are added at the same time. After 16-20 hours, 1 μCi of ^3 H-thymidine is added, and after a further 4 hours, the incorporation of this substance into the TCA-precipitatable DNA of the cells is determined.

Row | SMILES | % inhibition at 10^6 M [%]
3 | CCCCc1nc(Cl)c(CO)n1Cc1ccc(S(=O)(=O)N2CCCCC2)cc1 [Example 11] | 20
4 | CCCCc1nc(Cl)c(CO)n1Cc1ccc(S(=O)(=O)N2CCC[C@H]2C(=O)OC(C)(C)C)cc1Cl [Example 12] | 70

What follows are molecules tested on isolated aortic rings of rabbits, contraction induced by AII (assay: Inhibition of angiotensin II-induced contraction on isolated aortic rings of rabbits in vitro). Conditions: Oryctolagus cuniculus, 3rd=submaximum agonist concentration, read-out: IC50 against contractions induced by AII.
Type: cell-based, rabbit
Procedure: Rabbits of both sexes are stunned by a blow to the neck and exsanguinated or, where appropriate, anaesthetised with Nembutal (about 60-80 mg/kg i.v.) and sacrificed by opening the thorax. The thoracic aorta is removed, freed from attached connective tissue and divided into ring segments 1.5 mm wide, and the segments are introduced individually, under an initial load of about 3.5 g, into 10 ml organ baths containing carbogen-gassed KrebsHenseleit nutrient solution thermostatically controlled at 37° C. and having the following composition: 119 mmol/l of NaCl; 2.5 mmol/l of CaCl2 ×2 H2 O; 1.2 mmol/l to KH2 PO4; 10 mmol/l of glucose; 4.8 mmol/l of KCl; 1.4 mmol/l of MgSO4 ×7 H2 O and 25 mmol/l of NaHCO3.
The contractions are recorded isometrically by Statham UC2 cells via a bridge amplifier (ifd Mulheim or DSM Aalen), and are digitalised and evaluated by means of an A/D converter (system 570, Keithley Munich). The agonist dose/effect curves (DEC) are plotted hourly. For each DEC, 3 or 4 individual concentrations are applied to the baths at intervals of 4 minutes. The DEC and subsequent wash-out cycles (16 times for about 5 sec/min each with the above nutrient solution) are followed by a 28-minute resting or incubation phase, within which the contractions as a rule reach the starting value again.
The level of the 3rd DEC in the normal case is used as a reference parameter for evaluating the test substance which is to be investigated in subsequent passes and, for the subsequent DECs, is applied to the baths at the start of the incubation time in a dosage which increases each time. Each aortic ring is stimulated with always the same agonist over the entire day.
Agonists and their standard concentrations (application
The effect in each case at the 3rd=submaximum agonist concentration is taken as a basis for calculation of the IC50 (concentration at which the substance to be investigated causes 50% inhibition).

Row | pIC50 | SMILES
5 | 6.69 | CCCCc1nc(Cl)c(C(=O)O)n1Cc1ccc(S(=O)(=O)N2CCC[C@H]2C(=O)O)cc1 [Example 15]
6 | 6.51 | CCCCc1nc(Cl)c(C(=O)O)n1Cc1ccc(S(=O)(=O)N2CCCCC2C(=O)O)cc1Cl (stereo not drawn) [Example 16]
7 | 7.36 | CCCCc1nc(Cl)c(CO)n1Cc1ccc(S(=O)(=O)N2CCC[C@H]2C(=O)O)cc1Cl [Example 19]
8 | 6.60 | CCCCc1nc(Cl)c(CO)n1Cc1ccc(S(=O)(=O)N2CCC[C@H]2C(=O)O)cc1 [Example 21]
9 | 8.30 | CCCCc1nc(Cl)c(C(=O)O)n1Cc1ccc(S(=O)(=O)N2CCCCC2C(=O)O)cc1 (stereo not drawn) [Example 25]
